This passage reports IC50 results from patent US20210403485A1, “PYRAZOLOPYRIMIDINE DERIVATIVE AS SELECTIVE TRK INHIBITOR” (SHANDONG LUYE PHARMACEUTICAL CO., LTD., priority 2018, published 2021).

For orientation: IC50 means the concentration needed to halve the response being measured.

For the assay, the target named is T1, Ros1 (Homo sapiens, UniProt P08922).
T1 construct: purchased Reaction Biology Corp
Kind of assay: Kinase inhibitory activity (33P-ATP, filtration-binding method, Reaction Biology Corp.). The format is biochemical. The essentials: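 Radiometric kinase assay: enzyme-compound mixture preincubated 20 minutes at room temperature, then reaction started with ^33P-ATP and run 120 minutes at room temperature. Filtration-binding readout. Activity expressed relative to DMSO control; IC50 from fitted dose-response curves.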

T1 sequence (P08922 28-2347): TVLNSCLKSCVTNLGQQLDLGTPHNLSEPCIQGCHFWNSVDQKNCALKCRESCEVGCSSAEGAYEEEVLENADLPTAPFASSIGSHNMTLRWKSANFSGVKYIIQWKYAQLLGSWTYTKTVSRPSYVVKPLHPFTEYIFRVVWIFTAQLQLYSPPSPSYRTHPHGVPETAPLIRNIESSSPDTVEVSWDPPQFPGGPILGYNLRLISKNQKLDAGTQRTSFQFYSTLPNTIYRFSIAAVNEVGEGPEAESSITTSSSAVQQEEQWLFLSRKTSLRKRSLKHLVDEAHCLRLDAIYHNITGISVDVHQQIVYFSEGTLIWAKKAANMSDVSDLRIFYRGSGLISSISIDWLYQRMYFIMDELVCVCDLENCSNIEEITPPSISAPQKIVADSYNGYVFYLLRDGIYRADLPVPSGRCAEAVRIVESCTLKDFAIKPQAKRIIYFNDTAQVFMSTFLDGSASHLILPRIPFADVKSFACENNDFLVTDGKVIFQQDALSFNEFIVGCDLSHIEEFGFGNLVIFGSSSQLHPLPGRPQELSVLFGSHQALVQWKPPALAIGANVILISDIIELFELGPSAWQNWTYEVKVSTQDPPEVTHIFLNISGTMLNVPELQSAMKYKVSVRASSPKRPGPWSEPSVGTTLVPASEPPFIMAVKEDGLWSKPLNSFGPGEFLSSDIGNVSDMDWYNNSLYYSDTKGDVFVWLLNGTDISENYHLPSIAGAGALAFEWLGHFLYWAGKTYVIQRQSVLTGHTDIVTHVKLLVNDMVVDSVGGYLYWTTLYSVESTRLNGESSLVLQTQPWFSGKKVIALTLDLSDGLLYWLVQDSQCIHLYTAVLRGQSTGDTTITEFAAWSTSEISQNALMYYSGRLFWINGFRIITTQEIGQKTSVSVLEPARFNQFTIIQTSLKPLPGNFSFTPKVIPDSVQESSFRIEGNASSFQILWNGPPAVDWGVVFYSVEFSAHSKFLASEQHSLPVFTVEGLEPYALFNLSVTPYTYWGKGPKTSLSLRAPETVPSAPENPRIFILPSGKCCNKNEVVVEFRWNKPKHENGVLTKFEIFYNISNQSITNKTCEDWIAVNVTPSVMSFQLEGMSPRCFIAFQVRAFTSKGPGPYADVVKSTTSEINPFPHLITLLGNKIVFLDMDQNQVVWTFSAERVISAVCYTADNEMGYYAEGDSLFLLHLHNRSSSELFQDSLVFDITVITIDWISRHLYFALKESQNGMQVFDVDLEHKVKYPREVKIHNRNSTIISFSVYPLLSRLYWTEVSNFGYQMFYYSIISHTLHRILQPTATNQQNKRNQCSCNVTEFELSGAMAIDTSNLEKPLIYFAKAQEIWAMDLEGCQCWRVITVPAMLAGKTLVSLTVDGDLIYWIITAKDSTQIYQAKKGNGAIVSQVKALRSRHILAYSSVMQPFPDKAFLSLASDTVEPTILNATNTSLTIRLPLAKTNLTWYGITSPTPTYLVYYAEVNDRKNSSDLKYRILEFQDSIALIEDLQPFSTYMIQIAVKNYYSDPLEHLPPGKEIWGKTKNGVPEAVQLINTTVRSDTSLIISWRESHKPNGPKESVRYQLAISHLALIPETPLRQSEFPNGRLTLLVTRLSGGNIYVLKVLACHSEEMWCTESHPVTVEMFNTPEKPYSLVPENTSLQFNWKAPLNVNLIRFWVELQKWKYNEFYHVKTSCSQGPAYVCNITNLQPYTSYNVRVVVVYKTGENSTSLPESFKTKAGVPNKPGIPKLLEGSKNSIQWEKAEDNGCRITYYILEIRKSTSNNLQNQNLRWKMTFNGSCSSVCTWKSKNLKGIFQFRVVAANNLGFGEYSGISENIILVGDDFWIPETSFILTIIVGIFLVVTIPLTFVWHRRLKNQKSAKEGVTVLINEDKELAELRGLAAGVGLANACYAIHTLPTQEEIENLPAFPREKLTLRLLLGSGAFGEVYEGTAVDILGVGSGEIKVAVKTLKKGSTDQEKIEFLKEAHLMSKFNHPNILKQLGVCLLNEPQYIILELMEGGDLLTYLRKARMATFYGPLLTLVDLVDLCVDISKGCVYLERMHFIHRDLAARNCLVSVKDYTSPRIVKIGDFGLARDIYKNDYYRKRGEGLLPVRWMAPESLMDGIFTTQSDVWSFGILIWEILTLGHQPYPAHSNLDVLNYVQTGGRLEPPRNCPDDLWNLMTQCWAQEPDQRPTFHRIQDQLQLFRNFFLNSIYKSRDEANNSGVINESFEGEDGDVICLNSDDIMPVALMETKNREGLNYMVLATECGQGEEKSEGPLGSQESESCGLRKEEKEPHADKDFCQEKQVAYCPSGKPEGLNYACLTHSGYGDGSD

`O=C1NC2(CC2)COc2ncc(F)cc2C2COCCN2c2ccn3ncc1c3n2` (single isomer, unassigned) [WX001B] showed an IC50 of 1 nM.
